Columns and labels:
Format in all cases: cell-based
Settings in all cases: Table A; BaF3 cells, 3 days
EGFR V3 = target: T1, EGFR V3 (Homo sapiens, UniProt P00533, DELINS30-297G); experiment: BaF3 cell proliferation assay (CellTiterGlo), EGFR V3
T1 construct: expressed in transfected cells; host or cells: BaF3 (murine pro-B) cells, retroviral transduction with pMXs-IRES-Blasticidin
Protocol: (§1) Retroviral Production: EGFR mutants were subcloned into pMXs-IRES-Blasticidin (RTV-016, Cell Biolabs, San Diego, CA). Retroviral expression vector retrovirus was produced by transient transfection of HEK 293T cells with the retroviral EGFR mutant expression vector pMXs-IRES-Blasticidin (RTV-016, Cell Biolabs), pCMV-Gag-Pol vector and pCMV-VSV-G-Envelope vector. Briefly, HEK 293T/17 cells were plated in 100 mm collagen coated plate (354450, Corning Life Sciences, Tewksbury, MA) (4×10^5 per plate) and incubated overnight. The next day, retroviral plasmids (3 ng of EGFR mutant, 1.0 ng of pCMV-Gag-Pol and 0.5 ng pCMV-VSV-G) were mixed in 500 n1 of Optimem (31985, Life Technologies). The mixture was incubated at room temperature for 5 min and then added to Optimem containing transfection reagent Lipofectamine (11668, Invitrogen) and incubated for 20 minutes. Mixture was then added dropwise to HEK 293T cells. The next day the medium was replaced with fresh culture medium and retrovirus was harvested @ 24 and 48 hrs.
(§2) Generation of EGFR mutant stable cell lines: BaF3 cells (1.5E5 cells) were infected with 1 ml of viral supernatant supplemented with 8 ng/ml polybrene by centrifuging for 30 min at 1000 rpm. Cells were placed in a 37° C. incubator overnight. Cells were then spun for 5 minutes to pellet the cells. Supernatant was removed and cells re-infected a fresh 1 ml of viral supernatant supplemented with 8 ng/ml polybrene by centrifuging for 30 min at 1000 rpm. Cells were placed in 37° C. incubator overnight. Cells were then maintained in RPMI containing 10% Heat Inactivated FBS, 2% L-glutamine containing 10 ng/ml IL-3. After 48 hours cells were selected for retroviral infection in 10 […] for one week. Blasticidin resistant populations were washed twice in phosphate buffered saline before plating in media lacking IL-3 to select for IL-3 independent growth.
(§3) Assay for cell proliferation: BaF3 cell lines were resuspended at 1.3E5 c/ml in RPMI containing 10% Heat Inactivated FBS, 2% L-glutamine and 1% Pen/Strep and dispensed in triplicate (17.5E4 c/well) into 96 well plates. To determine the effect of drug on cell proliferation, cells incubated for 3 days in the presence of vehicle control or test drug at varying concentrations. Inhibition of cell growth was determined by luminescent quantification of intracellular ATP content using CellTiterGlo (Promega), according to the protocol provided by the manufacturer. Comparison of cell number on day 0 versus 72 hours post drug treatment was used to plot dose-response curves. The number of viable cells was determined and normalized to vehicle-treated controls. Inhibition of proliferation, relative to vehicle-treated controls was expressed as a fraction of 1 and graphed using PRISM® software (Graphpad Software, San Diego, CA). EC50 values were determined with the same application.

EGFR wt = target: T2, EGFR wt (Homo sapiens, UniProt P00533); experiment: BaF3 cell proliferation assay (CellTiterGlo), EGFR wt
T2 construct: expressed in transfected cells; host or cells: BaF3 (murine pro-B) cells, retroviral transduction with pMXs-IRES-Blasticidin
T2 sequence (P00533 25-1210): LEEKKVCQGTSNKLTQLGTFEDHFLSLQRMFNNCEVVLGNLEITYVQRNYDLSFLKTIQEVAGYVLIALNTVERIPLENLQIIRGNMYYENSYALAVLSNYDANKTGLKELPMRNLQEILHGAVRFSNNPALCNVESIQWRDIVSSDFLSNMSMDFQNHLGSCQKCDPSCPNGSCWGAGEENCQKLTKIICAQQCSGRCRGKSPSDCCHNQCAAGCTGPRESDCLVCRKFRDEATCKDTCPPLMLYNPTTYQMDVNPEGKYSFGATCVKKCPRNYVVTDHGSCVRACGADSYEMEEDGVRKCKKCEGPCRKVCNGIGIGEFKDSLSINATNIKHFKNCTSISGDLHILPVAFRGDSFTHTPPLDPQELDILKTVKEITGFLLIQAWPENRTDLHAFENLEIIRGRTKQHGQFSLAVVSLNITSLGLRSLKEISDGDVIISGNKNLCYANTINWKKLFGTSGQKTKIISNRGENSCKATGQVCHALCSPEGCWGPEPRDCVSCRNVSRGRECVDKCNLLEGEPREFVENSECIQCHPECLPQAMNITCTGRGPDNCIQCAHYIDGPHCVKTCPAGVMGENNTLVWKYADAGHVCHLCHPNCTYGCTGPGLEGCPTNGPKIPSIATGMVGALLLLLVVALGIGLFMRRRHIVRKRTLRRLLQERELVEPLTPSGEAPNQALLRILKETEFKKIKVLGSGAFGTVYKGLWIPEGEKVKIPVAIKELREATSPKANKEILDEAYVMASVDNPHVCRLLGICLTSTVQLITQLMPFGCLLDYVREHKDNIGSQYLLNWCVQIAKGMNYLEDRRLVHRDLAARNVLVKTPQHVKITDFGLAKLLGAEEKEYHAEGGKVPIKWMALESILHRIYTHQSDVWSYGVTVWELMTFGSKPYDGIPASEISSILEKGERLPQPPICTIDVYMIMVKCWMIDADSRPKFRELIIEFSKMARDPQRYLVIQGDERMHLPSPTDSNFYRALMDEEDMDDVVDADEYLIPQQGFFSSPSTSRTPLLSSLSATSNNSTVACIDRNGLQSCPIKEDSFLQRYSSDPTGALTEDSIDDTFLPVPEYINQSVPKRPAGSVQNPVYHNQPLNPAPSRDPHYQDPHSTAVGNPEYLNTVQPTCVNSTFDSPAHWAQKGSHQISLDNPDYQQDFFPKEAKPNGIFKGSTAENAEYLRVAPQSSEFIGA
Protocol: as §1, §2, §3

HER2 S310F = target: T3, HER2 S310F (Homo sapiens, UniProt P04626, S310F); experiment: BaF3 cell proliferation assay (CellTiterGlo), HER2 S310F
T3 construct: expressed in transfected cells; host or cells: BaF3 (murine pro-B) cells
T3 sequence (P04626 23-1255 S310F): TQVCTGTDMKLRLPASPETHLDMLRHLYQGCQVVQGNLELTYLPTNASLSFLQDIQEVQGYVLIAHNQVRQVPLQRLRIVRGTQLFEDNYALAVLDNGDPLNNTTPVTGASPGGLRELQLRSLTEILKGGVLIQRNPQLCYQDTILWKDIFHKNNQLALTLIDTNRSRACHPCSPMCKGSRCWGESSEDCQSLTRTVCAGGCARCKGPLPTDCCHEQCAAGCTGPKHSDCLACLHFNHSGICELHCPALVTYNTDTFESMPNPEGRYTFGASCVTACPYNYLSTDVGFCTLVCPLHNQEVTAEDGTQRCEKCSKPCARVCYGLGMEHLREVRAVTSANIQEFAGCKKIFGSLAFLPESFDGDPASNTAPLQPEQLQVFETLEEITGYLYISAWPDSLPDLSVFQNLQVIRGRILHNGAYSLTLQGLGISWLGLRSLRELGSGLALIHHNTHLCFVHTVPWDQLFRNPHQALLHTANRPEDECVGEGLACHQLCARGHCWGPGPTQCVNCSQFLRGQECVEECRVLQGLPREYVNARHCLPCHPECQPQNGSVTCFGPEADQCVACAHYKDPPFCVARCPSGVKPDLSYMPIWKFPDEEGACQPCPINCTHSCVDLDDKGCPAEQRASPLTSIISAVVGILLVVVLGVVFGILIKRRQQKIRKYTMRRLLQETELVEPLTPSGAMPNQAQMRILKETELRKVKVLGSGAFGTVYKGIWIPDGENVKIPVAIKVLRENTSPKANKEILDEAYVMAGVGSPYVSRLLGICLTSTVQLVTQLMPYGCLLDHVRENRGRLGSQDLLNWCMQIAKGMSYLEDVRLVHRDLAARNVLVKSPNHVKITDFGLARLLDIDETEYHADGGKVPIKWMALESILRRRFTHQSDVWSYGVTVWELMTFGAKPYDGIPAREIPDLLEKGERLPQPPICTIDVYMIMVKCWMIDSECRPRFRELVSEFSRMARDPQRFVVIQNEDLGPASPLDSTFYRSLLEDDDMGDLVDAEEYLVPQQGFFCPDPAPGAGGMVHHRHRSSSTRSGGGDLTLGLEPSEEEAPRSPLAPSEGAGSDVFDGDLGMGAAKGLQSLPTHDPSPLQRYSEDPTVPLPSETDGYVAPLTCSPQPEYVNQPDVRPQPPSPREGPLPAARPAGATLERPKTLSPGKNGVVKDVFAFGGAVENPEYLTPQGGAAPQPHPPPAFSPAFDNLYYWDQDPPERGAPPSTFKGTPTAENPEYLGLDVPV

HER2 YVMA = target: T4, HER2 YVMA (Homo sapiens, UniProt P04626, INS775YVMA); experiment: BaF3 cell proliferation assay (CellTiterGlo), HER2 YVMA
T4 construct: expressed in transfected cells; host or cells: BaF3 (murine pro-B) cells
T4 sequence (P04626 with tags, fused parts or gaps INS775YVMA): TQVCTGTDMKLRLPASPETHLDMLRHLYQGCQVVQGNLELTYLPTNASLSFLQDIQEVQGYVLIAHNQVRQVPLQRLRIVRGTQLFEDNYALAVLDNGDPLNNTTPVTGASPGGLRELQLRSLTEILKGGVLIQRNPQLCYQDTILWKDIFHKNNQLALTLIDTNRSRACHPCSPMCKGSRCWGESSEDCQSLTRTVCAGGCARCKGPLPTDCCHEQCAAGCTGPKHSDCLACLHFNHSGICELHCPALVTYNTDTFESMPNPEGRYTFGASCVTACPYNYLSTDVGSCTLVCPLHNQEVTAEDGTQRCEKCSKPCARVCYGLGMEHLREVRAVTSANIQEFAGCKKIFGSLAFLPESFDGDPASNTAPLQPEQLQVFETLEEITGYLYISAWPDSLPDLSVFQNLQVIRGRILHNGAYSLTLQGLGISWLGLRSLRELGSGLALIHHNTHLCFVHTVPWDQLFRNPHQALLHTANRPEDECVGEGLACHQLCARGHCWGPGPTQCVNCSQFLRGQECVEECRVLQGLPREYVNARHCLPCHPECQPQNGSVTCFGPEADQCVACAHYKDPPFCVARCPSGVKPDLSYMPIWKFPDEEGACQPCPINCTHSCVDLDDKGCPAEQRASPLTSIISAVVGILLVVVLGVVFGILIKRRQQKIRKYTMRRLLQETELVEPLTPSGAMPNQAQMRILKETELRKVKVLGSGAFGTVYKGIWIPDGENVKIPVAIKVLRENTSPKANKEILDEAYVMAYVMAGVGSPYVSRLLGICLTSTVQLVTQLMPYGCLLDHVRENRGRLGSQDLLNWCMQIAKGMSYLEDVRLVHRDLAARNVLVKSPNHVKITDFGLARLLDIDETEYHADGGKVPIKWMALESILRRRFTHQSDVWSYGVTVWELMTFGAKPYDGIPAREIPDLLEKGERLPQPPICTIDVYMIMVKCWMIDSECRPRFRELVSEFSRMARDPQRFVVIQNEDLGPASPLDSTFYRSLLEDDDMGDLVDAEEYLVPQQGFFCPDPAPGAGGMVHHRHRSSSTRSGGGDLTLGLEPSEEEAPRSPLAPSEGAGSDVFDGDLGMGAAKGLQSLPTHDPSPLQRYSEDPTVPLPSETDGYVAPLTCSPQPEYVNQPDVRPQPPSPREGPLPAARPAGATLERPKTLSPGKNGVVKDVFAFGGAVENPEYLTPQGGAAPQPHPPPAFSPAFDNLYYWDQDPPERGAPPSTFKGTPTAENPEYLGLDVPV

T1 sequence (P00533 with tags, fused parts or gaps DELINS30-297G): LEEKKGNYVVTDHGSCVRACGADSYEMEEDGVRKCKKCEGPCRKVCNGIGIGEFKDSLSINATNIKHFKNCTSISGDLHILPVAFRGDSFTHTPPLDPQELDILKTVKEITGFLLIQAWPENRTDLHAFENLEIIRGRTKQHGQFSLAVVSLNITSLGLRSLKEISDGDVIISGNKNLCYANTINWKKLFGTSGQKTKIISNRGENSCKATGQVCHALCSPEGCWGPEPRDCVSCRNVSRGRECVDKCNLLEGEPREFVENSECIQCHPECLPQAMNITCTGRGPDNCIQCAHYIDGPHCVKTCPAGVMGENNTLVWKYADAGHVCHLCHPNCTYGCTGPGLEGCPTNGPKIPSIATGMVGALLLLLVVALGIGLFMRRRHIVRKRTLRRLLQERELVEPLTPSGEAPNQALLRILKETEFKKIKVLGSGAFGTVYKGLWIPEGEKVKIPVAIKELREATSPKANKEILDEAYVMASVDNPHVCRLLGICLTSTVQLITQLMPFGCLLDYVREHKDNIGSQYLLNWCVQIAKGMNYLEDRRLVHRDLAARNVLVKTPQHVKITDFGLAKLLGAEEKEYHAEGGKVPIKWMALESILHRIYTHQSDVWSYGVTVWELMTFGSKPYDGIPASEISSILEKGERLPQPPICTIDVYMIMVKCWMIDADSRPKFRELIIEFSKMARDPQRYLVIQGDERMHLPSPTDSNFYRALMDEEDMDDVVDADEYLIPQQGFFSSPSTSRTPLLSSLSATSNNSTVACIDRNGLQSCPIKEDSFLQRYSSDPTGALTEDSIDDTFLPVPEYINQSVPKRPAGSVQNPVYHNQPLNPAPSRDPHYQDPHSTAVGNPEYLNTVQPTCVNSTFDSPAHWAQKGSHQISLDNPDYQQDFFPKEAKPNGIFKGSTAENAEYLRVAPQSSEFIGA

Structure (SMILES) | IC50 (EGFR V3) | IC50 (EGFR wt) | IC50 (HER2 S310F) | IC50 (HER2 YVMA)
CN(C)C/C=C/C(=O)Nc1cc2c(Nc3cccc(Cl)c3F)ncnc2cc1C#C[C@@]1(C)CCN(C)C1 [Compound 24, (R,E)-N-(4-((3-chloro-2-fluorophenyl)amino)-7-((1,3-dimethylpyrrolidin-3-yl)ethynyl)quinazolin-6-yl)-4-(dimethylamino)but-2-enamide] | 50 to 100 nM | > 500 nM | 100 to 500 nM | 
C=CC(=O)Nc1cc2c(Nc3cccc(Cl)c3F)ncnc2cc1C#CC1(C)COC1 [Compound 30, N-(4-((3-chloro-2-fluorophenyl)amino)-7-((3-methyloxetan-3-yl)ethynyl)quinazolin-6-yl)acrylamide] | ≤ 50 nM | 50 to 100 nM |  | 50 to 100 nM
C=CC(=O)Nc1cc2c(Nc3ccc(Cl)c(Cl)c3F)ncnc2cc1C#C[C@]12C[C@H]1CN(C)C2 [Compound 33, N-(4-((3,4-dichloro-2-fluorophenyl)amino)-7-(((1S,5R)-3-methyl-3-azabicyclo[3.1.0]hexan-1-yl)ethynyl)quinazolin-6-yl)acrylamide] | ≤ 50 nM | ≤ 50 nM |  | ≤ 50 nM
C=CC(=O)Nc1cc2c(Nc3cccc(Cl)c3F)ncnc2cc1C#CC1(C)CN(C)CCO1 (stereo not shown) [Compound 32, N-(4-((3-chloro-2-fluorophenyl)amino)-7-((2,4-dimethylmorpholin-2-yl)ethynyl)quinazolin-6-yl)acrylamide] | ≤ 50 nM | > 500 nM |  | > 500 nM
C=CC(=O)Nc1cc2c(Nc3ccc(Cl)c(Cl)c3F)ncnc2cc1C#C[C@@]12C[C@@H]1CN(C)C2 [Compound 34] | ≤ 50 nM | ≤ 50 nM |  | ≤ 50 nM
CN1C[C@H]2C[C@@]2(C#Cc2cc3ncnc(Nc4cccc(Cl)c4F)c3cc2NC(=O)C(F)Cl)C1 (stereo partly drawn) [Compound 23, 2-chloro-N-(4-((3-chloro-2-fluorophenyl)-amino)-7-(((1R,5S)-3-methyl-3-azabicyclo[3.1.0]hexan-1-yl)ethynyl)quinazolin-6-yl)-2-fluoroacetamide] | > 500 nM | 50 to 100 nM | 100 to 500 nM | 
C=CC(=O)Nc1cc2c(Nc3cccc(Cl)c3F)ncnc2cc1C#C[C@]12C[C@H]1CN(C(C)C)C2 [Compound 42, N-(4-((3-chloro-2-fluorophenyl)amino)-7-(((1S,5R)-3-isopropyl-3-azabicyclo[3.1.0]hexan-1-yl)ethynyl)quinazolin-6-yl)acrylamide] | ≤ 50 nM | ≤ 50 nM |  | ≤ 50 nM
CCC(=O)Nc1cc2c(Nc3cccc(Cl)c3F)ncnc2cc1C#C[C@@]1(C)CCN(C)C1 [Compound 22, (R)—N-(4-((3-chloro-2-fluorophenyl)amino)-7-((1,3-dimethylpyrrolidin-3-yl)ethynyl)quinazolin-6-yl)propionamide] | > 500 nM |  | > 500 nM | 
C=CC(=O)Nc1cc2c(Nc3cccc(Cl)c3F)ncnc2cc1C#C[C@]1(OC)CCN(C)C1 [Compound 36, (R)—N-(4-((3-chloro-2-fluorophenyl)amino)-7-((3-methoxy-1-methylpyrrolidin-3-yl)ethynyl)quinazolin-6-yl)acrylamide] | ≤ 50 nM | ≤ 50 nM |  | ≤ 50 nM
C=CC(=O)Nc1cc2c(Nc3cccc(Cl)c3F)ncnc2cc1C#C[C@@]1(OC)CCN(C)C1 [Compound 35, (S)—N-(4-((3-chloro-2-fluorophenyl)amino)-7-((3-methoxy-1-methylpyrrolidin-3-yl)ethynyl)quinazolin-6-yl)acrylamide] | ≤ 50 nM | ≤ 50 nM |  | ≤ 50 nM
CC#CC(=O)Nc1cc2c(Nc3cccc(Cl)c3F)ncnc2cc1C#C[C@@]12C[C@@H]1CN(C)C2 [Compound 38, N-(4-((3-chloro-2-fluorophenyl)amino)-7-(((1R,5S)-3-methyl-3-azabicyclo[3.1.0]hexan-1-yl)ethynyl)quinazolin-6-yl)but-2-ynamide] | ≤ 50 nM | 50 to 100 nM |  | 100 to 500 nM
CN1C[C@H]2C[C@@]2(C#Cc2cc3ncnc(Nc4cccc(Cl)c4F)c3cc2NC(=O)C#CCN2CCOCC2)C1 [Compound 18, N-(4-((3-chloro-2-fluorophenyl)amino)-7-(((1R,5S)-3-methyl-3-azabicyclo[3.1.0]hexan-1-yl)ethynyl)quinazolin-6-yl)-4-morpholinobut-2-ynamide] | ≤ 50 nM |  | ≤ 50 nM | 
C=CC(=O)Nc1cc2c(Nc3ccc(Oc4ccccc4)cc3)ncnc2cc1C#C[C@@]12C[C@@H]1CN(C)C2 [Compound 40, N-(7-(((1R,5S)-3-methyl-3-azabicyclo[3.1.0]hexan-1-yl)ethynyl)-4-((4-phenoxyphenyl)amino)quinazolin-6-yl)acrylamide] | ≤ 50 nM | 100 to 500 nM |  | 100 to 500 nM
CC(C)/C=C/C(=O)Nc1cc2c(Nc3cccc(Cl)c3F)ncnc2cc1C#C[C@@]1(C)CCN(C)C1 [Compound 39, (E)-N-[4-(3-chloro-2-fluoro-anilino)-7-[2-[(3R)-1,3-dimethylpyrrolidin-3-yl]ethynyl]quinazolin-6-yl]-4-methyl-pent-2-enamide] | > 500 nM | 50 to 100 nM |  | > 500 nM
C/C=C/C(=O)Nc1cc2c(Nc3cccc(Cl)c3F)ncnc2cc1C#C[C@@]1(C)CCN(C)C1 [Compound 27, (R,E)-N-(4-((3-chloro-2-fluorophenyl)amino)-7-((1,3-dimethylpyrrolidin-3-yl)ethynyl)quinazolin-6-yl)but-2-enamide] | > 500 nM | 100 to 500 nM |  | > 500 nM
C=CC(=O)Nc1cc2c(Nc3ccc(Oc4ccn5ncnc5c4)c(C)c3)ncnc2cc1C#CC12CC1CN(C)C2 (stereo not shown) [Compound 28, N-(4-((4-([1,2,4]triazolo[1,5-a]pyridin-7-yloxy)-3-methylphenyl)amino)-7-((3-methyl-3-azabicyclo[3.1.0]hexan-1-yl)ethynyl)quinazolin-6-yl)acrylamide] | ≤ 50 nM | > 500 nM |  | ≤ 50 nM
C=CC(=O)Nc1cc2c(Nc3cc(Cl)ccc3F)ncnc2cc1C#CC1(C)COC1 [Compound 29, N-(4-((5-chloro-2-fluorophenyl)amino)-7-((3-methyloxetan-3-yl)ethynyl)quinazolin-6-yl)acrylamide] | 100 to 500 nM | 100 to 500 nM |  | > 500 nM
CN(C)C/C=C/C(=O)Nc1cc2c(Nc3cccc(Cl)c3F)ncnc2cc1C#CC1(C)CCOC1 (stereo not shown) [Compound 44, (E)-N-(4-((3-chloro-2-fluorophenyl)amino)-7-((3-methyltetrahydrofuran-3-yl)ethynyl)quinazolin-6-yl)-4-(dimethylamino)but-2-enamide] | ≤ 50 nM | ≤ 50 nM |  | ≤ 50 nM
C=C(CO)C(=O)Nc1cc2c(Nc3cccc(Cl)c3F)ncnc2cc1C#C[C@@]1(C)CCN(C)C1 [Compound 31, (R)—N-(4-((3-chloro-2-fluorophenyl)amino)-7-((1,3-dimethylpyrrolidin-3-yl)ethynyl)quinazolin-6-yl)-2-(hydroxymethyl)acrylamide] | 50 to 100 nM | ≤ 50 nM |  | 100 to 500 nM
COC(=O)Nc1cc2c(Nc3cccc(Cl)c3F)ncnc2cc1C#CC1(C)CCN(C)C1 (stereo not shown) [Compound 43, Methyl (4-((3-chloro-2-fluorophenyl)amino)-7-((1,3-dimethylpyrrolidin-3-yl)ethynyl)quinazolin-6-yl)carbamate] | > 500 nM | ≤ 50 nM |  | > 500 nM
CN1CC[C@](C)(C#Cc2cc3ncnc(Nc4cccc(Cl)c4F)c3cc2NC(=O)CC#N)C1 [Compound No. 84, (R)—N-(4-((3-chloro-2-fluorophenyl)amino)-7-((1,3-dimethylpyrrolidin-3-yl)ethynyl)quinazolin-6-yl)-2-cyanoacetamide] | > 500 nM | > 500 nM |  | > 500 nM
